In paper PMC10820527, “Synthesis, Characterization, and Investigation of Anti-Inflammatory and Cytotoxic Activities of Novel Thiourea Derivatives of Naproxen” (Pharmaceutics, 2023):

Assays:
[1] = system: healthy male rats; assay: Acute oral toxicity assessment (OECD Guidelines No. 423); format: in vivo, rat; conditions: single per os dose 10 mg/kg, sacrifice after 14 days, (absolute organ weight × 100%)/body weight
Protocol: The acute oral toxicity was assessed in healthy male rats (n = 24, three rats per group, body weight 180–200 g) according to a previously established protocol and the OECD Guidelines No. 423 [37, 38].
Animals were randomly assigned to the following groups: control group—rats that received single dose of 1% DMSO and experimental groups—rats that received compounds 8–14 per os in the single dose of 10 mg/kg dissolved in 1% DMSO. All rats were fasted prior to administration of compounds and during 3 h following the treatment.
Afterwards, rats were kept in single cages and observed once daily during 14 days for clinical signs of toxicity. All behavioral changes and any signs of toxicity were recorded (fur and skin, urination (color), feces consistency, eyes, salivation, any alterations in behavior pattern). Additionally, food and water intake and the body weight were measured daily over 14 days. After accomplishing the monitoring period, rats were sacrificed, and organ weight (liver, kidney, stomach, and heart) was recorded. Relative organ weight was calculated as follows: (absolute organ weight × 100%)/body weight of rat on the day of sacrifice(1)

[2] = system: carrageenan-induced rat paw edema; assay: Carrageenan-induced rat paw edema model; format: in vivo; conditions: for Rat Paw Thickness: mean ± SD; for inhibition in vivo at 2.5 mg/kg / inhibition in vivo at 5 mg/kg / inhibition in vivo at 10 mg/kg: Rattus norvegicus
Protocol: The Carrageenan-induced rat paw edema model was used to assess the anti-inflammatory potential of novel compounds 8–14. Induction of inflammation was performed in all animals by intraplantar injection of […] 0.5% carrageenan saline into the left hind paw.
Animals (n = 200) were randomly divided into the following groups: control groups, that received either 1% DMSO or naproxen, and experimental groups, that received the novel compounds 8–14.
Control groups included DMSO and naproxen groups. Rats belonging to the DMSO group received 1% DMSO in the same volume as the compounds 8–14, 60 min before carrageenan injection. Moreover, naproxen groups included rats that were subjected to naproxen treatment in three doses: 2.5 mg/kg, 5 mg/kg, and 10 mg/kg. Naproxen was applied in the same manner as 1% DMSO.
Experimental groups included rats that were treated with compounds 8–14 and they were divided into three subgroups depending on the applied dose: 2.5 mg/kg, 5 mg/kg, and 10 mg/kg. The examined compounds were dissolved in 1% DMSO prior to treatment and applied to rats 60 min before inducing inflammation, i.e., before carrageenan injection. Doses of naproxen and investigated compounds were defined based on our previously published research.
In order to quantify the anti-inflammatory effects of the tested compounds, left paw thickness was measured at specific time points: prior to inflammation induction (moment 0) and 1, 2, 3, and 4 h (moments 1, 2, 3, and 4) following carrageenan injection. Tissue thickness was measured in the middle of the rat paw using a Digital Vernier caliper (Aerospace, China). The percentage of inhibition of paw edema after treatment with different agents was calculated according to the formula, Equation (2):% Inhibition = 100 × [1 − (Yt/Yc)](2) where Yt = average increase in paw thickness in the treated group of rats between two measurement moments, and Yc = average increase in paw thickness in the untreated group of rats between two measurement moments.

[3] = 2.5 mg/kg, 1 h after carrageenan
[4] = 2.5 mg/kg, 2 h after carrageenan
[5] = 2.5 mg/kg, 3 h after carrageenan
[6] = 2.5 mg/kg, 4 h after carrageenan
[7] = 5.0 mg/kg, 1 h after carrageenan
[8] = 5.0 mg/kg, 2 h after carrageenan
[9] = 5.0 mg/kg, 3 h after carrageenan
[10] = 5.0 mg/kg, 4 h after carrageenan
[11] = 10.0 mg/kg, 1 h after carrageenan
[12] = 10.0 mg/kg, 2 h after carrageenan
[13] = 10.0 mg/kg, 3 h after carrageenan
[14] = 10.0 mg/kg, 4 h after carrageenan

COc1ccc2cc([C@H](C)C(=O)NC(=S)Nc3ccccc3OC)ccc2c1 [Compound 11, (S)-2-(6-methoxynaphthalen-2-yl)-N-((2-methoxyphenyl)carbamothioyl)propanamide]
Relative organ weight, Heart [1]: 0.32 ± 0.02 | Relative organ weight, Kidney [1]: 0.33 ± 0.05 | Relative organ weight, Liver [1]: 2.83 ± 0.20 | Relative organ weight, Stomach [1]: 0.54 ± 0.05 | Rat Paw Thickness [2, 3]: 7.30 ± 0.60 mm | Rat Paw Thickness [2, 4]: 6.97 ± 0.67 mm | Rat Paw Thickness [2, 5]: 6.67 ± 0.80 mm | Rat Paw Thickness [2, 6]: 6.50 ± 0.80 mm | Rat Paw Thickness [2, 7]: 6.97 ± 0.12 mm | Rat Paw Thickness [2, 8]: 6.73 ± 0.15 mm | Rat Paw Thickness [2, 9]: 6.27 ± 0.23 mm | Rat Paw Thickness [2, 10]: 6.07 ± 0.15 mm | Rat Paw Thickness [2, 11]: 7.33 ± 0.06 mm | Rat Paw Thickness [2, 12]: 6.93 ± 0.12 mm | Rat Paw Thickness [2, 13]: 6.63 ± 0.15 mm | Rat Paw Thickness [2, 14]: 6.17 ± 0.31 mm | inhibition in vivo at 2.5 mg/kg ([2]; 2.5 mg/kg, 1 h): 22.4% | inhibition in vivo at 2.5 mg/kg ([2]; 2.5 mg/kg, 2 h): 28.8% | inhibition in vivo at 2.5 mg/kg ([2]; 2.5 mg/kg, 3 h): 31.5% | inhibition in vivo at 2.5 mg/kg ([2]; 2.5 mg/kg, 4 h): 26.7% | inhibition in vivo at 5 mg/kg ([2]; 5.0 mg/kg, 1 h): 22.4% | inhibition in vivo at 5 mg/kg ([2]; 5.0 mg/kg, 2 h): 24.2% | inhibition in vivo at 5 mg/kg ([2]; 5.0 mg/kg, 3 h): 35.1% | inhibition in vivo at 5 mg/kg ([2]; 5.0 mg/kg, 4 h): 33.3% | inhibition in vivo at 10 mg/kg ([2]; 10.0 mg/kg, 1 h): 10.2% | inhibition in vivo at 10 mg/kg ([2]; 10.0 mg/kg, 2 h): 18.2% | inhibition in vivo at 10 mg/kg ([2]; 10.0 mg/kg, 3 h): 18.9% | inhibition in vivo at 10 mg/kg ([2]; 10.0 mg/kg, 4 h): 31.1%

COc1ccc2cc([C@H](C)C(=O)NC(=S)Nc3ccccc3F)ccc2c1 [Compound 12, (S)-N-((2-fluorophenyl)carbamothioyl)-2-(6-methoxynaphthalen-2-yl)propanamide]
Relative organ weight, Heart [1]: 0.35 ± 0.03 | Relative organ weight, Kidney [1]: 0.32 ± 0.04 | Relative organ weight, Liver [1]: 2.76 ± 0.36 | Relative organ weight, Stomach [1]: 0.59 ± 0.05 | Rat Paw Thickness [2, 3]: 6.83 ± 0.38 mm | Rat Paw Thickness [2, 4]: 6.43 ± 0.40 mm | Rat Paw Thickness [2, 5]: 6.00 ± 0.30 mm | Rat Paw Thickness [2, 6]: 5.53 ± 0.06 mm | Rat Paw Thickness [2, 7]: 6.07 ± 0.64 mm | Rat Paw Thickness [2, 8]: 5.83 ± 0.49 mm | Rat Paw Thickness [2, 9]: 5.57 ± 0.38 mm | Rat Paw Thickness [2, 10]: 5.03 ± 0.12 mm | Rat Paw Thickness [2, 11]: 6.33 ± 0.21 mm | Rat Paw Thickness [2, 12]: 6.03 ± 0.06 mm | Rat Paw Thickness [2, 13]: 5.60 ± 0.10 mm | Rat Paw Thickness [2, 14]: 5.17 ± 0.21 mm | inhibition in vivo at 2.5 mg/kg ([2]; 2.5 mg/kg, 1 h): 8.84% | inhibition in vivo at 2.5 mg/kg ([2]; 2.5 mg/kg, 2 h): 16.7% | inhibition in vivo at 2.5 mg/kg ([2]; 2.5 mg/kg, 3 h): 24.3% | inhibition in vivo at 2.5 mg/kg ([2]; 2.5 mg/kg, 4 h): 37.8% | inhibition in vivo at 5 mg/kg ([2]; 5.0 mg/kg, 1 h): 18.4% | inhibition in vivo at 5 mg/kg ([2]; 5.0 mg/kg, 2 h): 19.7% | inhibition in vivo at 5 mg/kg ([2]; 5.0 mg/kg, 3 h): 18.9% | inhibition in vivo at 5 mg/kg ([2]; 5.0 mg/kg, 4 h): 35.6% | inhibition in vivo at 10 mg/kg ([2]; 10.0 mg/kg, 1 h): 19.7% | inhibition in vivo at 10 mg/kg ([2]; 10.0 mg/kg, 2 h): 24.2% | inhibition in vivo at 10 mg/kg ([2]; 10.0 mg/kg, 3 h): 33.3% | inhibition in vivo at 10 mg/kg ([2]; 10.0 mg/kg, 4 h): 46.7%

COC(=O)[C@H](Cc1c[nH]c2ccccc12)NC(=S)NC(=O)[C@@H](C)c1ccc2cc(OC)ccc2c1 [Compound 14, Methyl (((S)-2-(6-methoxynaphthalen-2-yl)propanoyl)carbamothioyl)tryptophanate]
Relative organ weight, Heart [1]: 0.31 ± 0.02 | Relative organ weight, Kidney [1]: 0.29 ± 0.04 | Relative organ weight, Liver [1]: 2.03 ± 0.42 | Relative organ weight, Stomach [1]: 0.53 ± 0.04 | Rat Paw Thickness [2, 3]: 6.53 ± 0.42 mm | Rat Paw Thickness [2, 4]: 6.23 ± 0.25 mm | Rat Paw Thickness [2, 5]: 5.90 ± 0.26 mm | Rat Paw Thickness [2, 6]: 5.33 ± 0.49 mm | Rat Paw Thickness [2, 7]: 6.77 ± 0.38 mm | Rat Paw Thickness [2, 8]: 6.53 ± 0.42 mm | Rat Paw Thickness [2, 9]: 6.17 ± 0.25 mm | Rat Paw Thickness [2, 10]: 5.80 ± 0.10 mm | Rat Paw Thickness [2, 11]: 7.03 ± 0.21 mm | Rat Paw Thickness [2, 12]: 6.47 ± 0.06 mm | Rat Paw Thickness [2, 13]: 6.03 ± 0.25 mm | Rat Paw Thickness [2, 14]: 5.67 ± 0.21 mm | inhibition in vivo at 2.5 mg/kg ([2]; 2.5 mg/kg, 1 h): 12.9% | inhibition in vivo at 2.5 mg/kg ([2]; 2.5 mg/kg, 2 h): 16.7% | inhibition in vivo at 2.5 mg/kg ([2]; 2.5 mg/kg, 3 h): 18.9% | inhibition in vivo at 2.5 mg/kg ([2]; 2.5 mg/kg, 4 h): 37.8% | inhibition in vivo at 5 mg/kg ([2]; 5.0 mg/kg, 1 h): 25.2% | inhibition in vivo at 5 mg/kg ([2]; 5.0 mg/kg, 2 h): 27.3% | inhibition in vivo at 5 mg/kg ([2]; 5.0 mg/kg, 3 h): 33.3% | inhibition in vivo at 5 mg/kg ([2]; 5.0 mg/kg, 4 h): 42.2% | inhibition in vivo at 10 mg/kg ([2]; 10.0 mg/kg, 1 h): 11.6% | inhibition in vivo at 10 mg/kg ([2]; 10.0 mg/kg, 2 h): 27.3% | inhibition in vivo at 10 mg/kg ([2]; 10.0 mg/kg, 3 h): 36.9% | inhibition in vivo at 10 mg/kg ([2]; 10.0 mg/kg, 4 h): 46.7%
